Results from paper PMC12081876, “Identification of PTGR2 inhibitors as a new therapeutic strategy for diabetes and obesity” (EMBO Molecular Medicine, 2025).
“And” between values parts separate entries of the source, which are not always exact repeats. Identical values can stand only once.

Experiments:
[1] = system: differentiated 3T3-L1 adipocytes; assay: Insulin-stimulated glucose uptake assay by (3H)2-deoxyglucose; type: cell-based, mouse; parameters: insulin-stimulated glucose uptake, Fig 1J replicates / Figure 5E raw value, insulin-stimulated glucose uptake (replicates): unit not given here
[2] = system: HFHSD-fed obese C57BL6/J mice; assay: Body weight / diet-induced obesity in HFHSD-fed mice; type: in vivo, mouse; settings: 40 mg/kg/day ip; for Body weight, individual mice / Body weight, Average: in g (unit assumed)
[3] = system: HFHSD-fed obese C57BL6/J mice; assay: Intraperitoneal glucose tolerance test (ipGTT); type: in vivo, mouse; parameters: Figure 2H Average (glucose, ipGTT) / ipGTT / ipGTT glucose, Average / Blood glucose during glucose tolerance test (Figure 5L), Average: unit not given here; settings: for ipGTT: individual mice
Protocol: (§1) Glucose tolerance was evaluated by the oral (OGTT) and intraperitoneal glucose tolerance test (ipGTT) after a 6-h fast. For the OGTT, glucose water (1 mg/g) was given by oral gavage, and tail blood glucose was measured with a glucometer (ACCU-CHEK Performa, Roche) at 0, 15, 30, 45, 60, 90, and 120 min. For the ipGTT, tail blood glucose was measured at 0, 15, 30, 45, 60, 90, and 120 min after intraperitoneal injection of glucose water (1 mg/g). For the insulin tolerance test (ITT), mice were fasted for 4 h and then injected intraperitoneally with 1 U/kg of insulin (Humulin R, Eli Lilly). Tail blood glucose was measured at 0, 15, 30, 45, 60, 90, 120, and 180 min.

[4] = system: HFHSD-fed obese C57BL6/J mice; assay: Insulin tolerance test (ITT); type: in vivo, mouse; parameters: Figure 2I Average (glucose, ITT) / ITT / ITT glucose, Average / Blood glucose during insulin tolerance test (Figure 5M), Average: unit not given here; settings: for ITT: individual mice
Protocol: as §1

[5] = system: HFHSD-fed obese C57BL6/J mice; assay: Body composition (fat mass, lean mass, free water, total water); type: in vivo, mouse; settings: 40 mg/kg/day ip, HFHSD-fed mice
[6] = 40 mg/kg/day ip, 3 weeks, HFHSD-fed mice, vs vehicle

CCCCCC(=O)/C=C/[C@H]1[C@H](O)CC(=O)[C@@H]1C/C=C\CCCC(=O)O [15-keto-PGE2, 15-keto-prostaglandin E2]
insulin-stimulated glucose uptake, Fig 1J replicates ([1]; 15kPGE2 1): 1.328 and 1.441 and 0.8491 and 1.4653
insulin-stimulated glucose uptake, Fig 1J replicates ([1]; 15kPGE2 5): 3.521 and 4.331 and 2.858 and 2.553
insulin-stimulated glucose uptake, Fig 1J replicates ([1]; 15kPGE2 10): 4.083 and 4.476 and 3.119 and 3.373
insulin-stimulated glucose uptake ([1]; differentiated 3T3-L1 adipocytes): increased insulin-stimulated glucose uptake in differentiated 3T3-L1 adipocytes dose-dependently
diet-induced obesity (body weight) ([2]; 3 weeks, HFHSD-fed mice, vs vehicle): protected against diet-induced obesity
Body weight, individual mice ([2]; treatment day 1, 40 mg/kg/day): 31.70 and 29.90 and 31.10 and 26.25 and 27.55
Body weight, Average ([2]; treatment day 1): 29.83
Body weight, individual mice ([2]; treatment day 2, 40 mg/kg/day): 31.55 and 28.75 and 30.85 and 26.15 and 27.85
Body weight, Average ([2]; treatment day 2): 29.61
Body weight, Average ([2]; treatment day 3, 40 mg/kg/day): 29.4
Body weight, individual mice ([2]; treatment day 3, 40 mg/kg/day): 31.60 and 29.00 and 30.75 and 25.90 and 26.35
Body weight, individual mice ([2]; treatment day 4, 40 mg/kg/day): 32.50 and 27.95 and 30.90 and 25.75 and 26.90
Body weight, Average ([2]; treatment day 4): 29.42
Body weight, individual mice ([2]; treatment day 5, 40 mg/kg/day): 32.50 and 26.45 and 30.70 and 25.35 and 26.25
Body weight, Average ([2]; treatment day 5): 29.42
Body weight, individual mice ([2]; treatment day 6, 40 mg/kg/day): 32.60 and 26.45 and 30.00 and 25.75
Body weight, Average ([2]; treatment day 6): 29.49
Body weight, individual mice ([2]; treatment day 7, 40 mg/kg/day): 32.60 and 26.55 and 30.10 and 26.40
Body weight, Average ([2]; treatment day 7): 29.61
Body weight, individual mice ([2]; treatment day 8, 40 mg/kg/day): 31.90 and 27.35 and 30.10 and 25.05
Body weight, Average ([2]; treatment day 8): 29.92
Body weight, individual mice ([2]; treatment day 9, 40 mg/kg/day): 31.40 and 28.05 and 30.70 and 25.90
Body weight, Average ([2]; treatment day 9): 29.95
Body weight, individual mice ([2]; treatment day 10, 40 mg/kg/day): 30.70 and 28.45 and 30.20 and 26.55 and 27.35
Body weight, Average ([2]; treatment day 10): 29.99
Body weight, individual mice ([2]; treatment day 11, 40 mg/kg/day): 31.60 and 28.55 and 30.40 and 27.50 and 26.90
Body weight, Average ([2]; treatment day 11): 30.05
Body weight, Average ([2]; treatment day 12, 40 mg/kg/day): 30.2
Body weight, individual mice ([2]; treatment day 12, 40 mg/kg/day): 31.60 and 29.05 and 30.95 and 27.45 and 27.10
Body weight, individual mice ([2]; treatment day 13, 40 mg/kg/day): 31.75 and 30.2 and 31.6 and 28.55 and 28.05
Body weight, Average ([2]; treatment day 13): 30.36
Body weight, individual mice ([2]; treatment day 14, 40 mg/kg/day): 31.65 and 30.50 and 31.35 and 28.35 and 27.80
Body weight, Average ([2]; treatment day 14): 30.49
Body weight, individual mice ([2]; treatment day 15, 40 mg/kg/day): 31.70 and 29.55 and 30.65 and 27.45 and 27.00
Body weight, Average ([2]; treatment day 15): 30.22
Body weight, individual mice ([2]; treatment day 16, 40 mg/kg/day): 31.85 and 29.40 and 30.30 and 27.00 and 26.50
Body weight, Average ([2]; treatment day 16): 30.12
Body weight, individual mice ([2]; treatment day 17, 40 mg/kg/day): 32.75 and 29.85 and 31.95 and 27.85 and 26.80
Body weight, Average ([2]; treatment day 17): 30.56
Body weight, individual mice ([2]; treatment day 18, 40 mg/kg/day): 31.80 and 29.75 and 32.10 and 27.75
Body weight, Average ([2]; treatment day 18): 30.63
Body weight, individual mice ([2]; treatment day 19, 40 mg/kg/day): 33.15 and 31.50 and 32.00 and 28.35 and 27.70
Body weight, Average ([2]; treatment day 19): 30.65
Body weight, individual mice ([2]; treatment day 20, 40 mg/kg/day): 33.10 and 30.85 and 31.55 and 27.75 and 27.15
Body weight, Average ([2]; treatment day 20): 30.69
Body weight, individual mice ([2]; treatment day 21, 40 mg/kg/day): 32.55 and 30.9 and 31.6 and 28 and 28.15
Body weight, Average ([2]; treatment day 21): 30.73
glucose tolerance (ipGTT) [3, 6]: markedly improved
ipGTT ([3]; 0 min): 105 and 98 and 102 and 88 and 151 and 155 and 75 and 78 and 93 and 125 and 111
ipGTT ([3]; 15 min): 222 and 226 and 190 and 213 and 239 and 234 and 324 and 231 and 152 and 188 and 183 and 251 and 245 and 276
ipGTT ([3]; 30 min): 262 and 264 and 155 and 201 and 221 and 211 and 273 and 247 and 125 and 124 and 200 and 186 and 235 and 231 and 280
ipGTT ([3]; 45 min): 229 and 251 and 162 and 188 and 184 and 199 and 252 and 215 and 109 and 112 and 132 and 155 and 211 and 175 and 213
ipGTT ([3]; 60 min): 262 and 225 and 130 and 171 and 177 and 179 and 196 and 206 and 110 and 120 and 89 and 133 and 182 and 155 and 205
ipGTT ([3]; 90 min): 208 and 191 and 114 and 152 and 166 and 143 and 171 and 181 and 88 and 108 and 112 and 151 and 124
ipGTT ([3]; 120 min): 166 and 121 and 99 and 122 and 118 and 90 and 69 and 80 and 108 and 131 and 100 and 135
Figure 2H Average (glucose, ipGTT) ([3]; time 0): 108.467
Figure 2H Average (glucose, ipGTT) ([3]; time 15): 223.8
Figure 2H Average (glucose, ipGTT) ([3]; time 30): 214.333
Figure 2H Average (glucose, ipGTT) ([3]; time 45): 185.8
Figure 2H Average (glucose, ipGTT) ([3]; time 60): 169.333
Figure 2H Average (glucose, ipGTT) ([3]; time 90): 144.2
Figure 2H Average (glucose, ipGTT) ([3]; time 120): 109.267
insulin sensitivity (ITT) [4, 6]: markedly improved
ITT ([4]; 0 min): 113 and 114 and 91 and 147 and 149 and 115 and 92 and 118 and 94 and 110 and 98 and 125
ITT ([4]; 15 min): 59 and 78 and 70 and 67 and 83 and 90 and 111 and 75 and 45 and 63 and 82 and 49 and 92
ITT ([4]; 30 min): 56 and 79 and 54 and 62 and 52 and 71 and 66 and 57 and 43 and 75 and 46
ITT ([4]; 45 min): 34 and 60 and 37 and 51 and 42 and 62 and 56 and 47 and 44 and 30 and 54 and 50 and 29
ITT ([4]; 60 min): 23 and 57 and 21 and 58 and 46 and 66 and 49 and 34 and 31 and 26 and 51 and 53 and 50 and 39 and 29
ITT ([4]; 90 min): 22 and 65 and 25 and 41 and 63 and 57 and 31 and 37 and 56 and 38 and 49 and 24 and 27
ITT ([4]; 120 min): 46 and 53 and 25 and 39 and 54 and 62 and 47 and 31 and 70 and 51 and 36
ITT ([4]; 180 min): 98 and 66 and 25 and 65 and 84 and 62 and 77 and 73 and 54 and 78 and 69 and 82
Figure 2I Average (glucose, ITT) ([4]; time 0): 112.333
Figure 2I Average (glucose, ITT) ([4]; time 15): 74.4667
Figure 2I Average (glucose, ITT) ([4]; time 30): 60.8
Figure 2I Average (glucose, ITT) ([4]; time 45): 46.2667
Figure 2I Average (glucose, ITT) ([4]; time 60): 42.2
Figure 2I Average (glucose, ITT) ([4]; time 90): 41.1333
Figure 2I Average (glucose, ITT) ([4]; time 120): 45.6667
Figure 2I Average (glucose, ITT) ([4]; time 180): 67.6667
body composition: fat mass ([5]; 3 weeks, vs vehicle): reduced fat mass
fluid retention (body composition) ([5]; 3 weeks, vs vehicle): without fluid retention
fat mass, Fig 2K, per mouse ([5]; listed as 15kPGE2): 5.32 and 2.67 and 2.477 and 3.3 and 3.197 and 3.02 and 3.75 and 4.29 and 2.763 and 2.153 and 4.333 and 4.837 and 5.383 and 6.203
free water, Fig 2K, per mouse ([5]; listed as 15kPGE2): 2.353 and 2.46 and 2.333 and 2.08 and 2.14 and 2.517 and 2.187 and 2.62 and 2.42 and 2.197 and 2.23 and 2.307 and 2.467
lean mass, Fig 2K, per mouse ([5]; listed as 15kPGE2): 21.65 and 22.52 and 23.3767 and 19.74 and 20.2767 and 20.98 and 21.1733 and 22.3667 and 21.9633 and 21.94 and 20.5267 and 22.2733 and 21.2733 and 21.61
total water, Fig 2K, per mouse ([5]; listed as 15kPGE2, in g (unit assumed)): 19.6733 and 20.4733 and 21.0367 and 17.8733 and 18.36 and 19.3 and 19.1267 and 20.5133 and 19.99 and 19.7467 and 18.65 and 20.1267 and 19.4833 and 19.7567
